Laboratory results taken from EP1638538B1, “DOSAGE FORM” (priority 2003, dated 2005).

Assay: Time for complete absorption of sunflower oil into compressed sporopollenin tablets with an absorption aiding liquid
Assay type: physicochemical
Procedure: Sporopollenin (0.5 g) tablets were prepared by compressing in a 16 mm die at a pressure of 10 tonnes for 2 min. […] The resulting powder was dried in a dessicator over P2O5 in oven at 50°C until constant weight.

[1] = sunflower oil (1 ml) + liquid (1 ml), 0.5 g tablet, room temperature

Row | Time for complete absorption (sunflower oil, repeated at 40 °C) | SMILES | Time for complete absorption [1]
1 | – | CC#N [acetonitrile] | 20 s
2 | – | ClCCl [dichloromethane] | 35 s
3 | 12 s | CCO [ethanol] | 20 s
4 | – | CCOC(C)=O [ethyl acetate] | 50 s
